Reference: paper PMC10535219, “Discovery and Potential Utility of a Novel Non-Invasive Ocular Delivery Platform” (Pharmaceutics, 2023)
Like-named read-outs stand apart in the source and are kept apart here.

Key:
[1] = set-up: method as in PMID 35250585; details: once-daily intragastric administration; mice; cited from earlier work
[2] = system: photoreceptors; set-up: method as in PMID 23723389; details: rat retinal neuronal cultures; by activating RXRs; cited from earlier work
[3] = system: IL-1β production; set-up: method as in PMID 29352206; details: human THP-1 macrophage cell line; read-out: IC50 for reducing IL-1β production; cited from earlier work
[4] = system: COX-2; set-up: method as in PMID 22765297, PMID 24005906; details: COX-2 signaling cascade; cited from earlier work
[5] = set-up: method as in PMID 32434914; details: dietary supplementation; mouse model with advanced AMD pathologies; cited from earlier work
[6] = Biodisposition of JV-DE1 eye drops in New Zealand rabbits (LC-MS/MS of plasma and ocular tissues); format: in vivo; details: rabbit; for Cmax / concentration at 0.5 h / concentration at 3 h / concentration at 6 h / concentration at 24 h: New Zealand; for Cmax: topical or ocular
Method: The in-life procedures and sample collections were performed at Joinn Laboratory Inc. (Suzhou, China). A single dose of 50 µL (120 µg) per eye of the 0.24% JV-DE1 eye drops was applied to both eyes of the animals at time 0 using a pipet. This dose was chosen based on the maximum amount deliverable as an eye drop. Blood samples were collected from all five study animals at 0 h pre-dosing. […] Plasma samples were collected before each euthanization.
Sample preparation and bioanalysis were performed at Medicilon Preclinical Research LLC (Shanghai, China). Solid ocular tissues were homogenized with 9- to 49-fold (1 g tissue in 9 mL to 49 mL, w/v) of cold homogenization buffer (50% methanol/H2O). Aliquots of plasma or aqueous humor, as well as the homogenized tissue samples, were mixed with 8-fold volumes of 200 ng/mL warfarin in a methanol solution. After vortexing and centrifuging, an aliquot of supernatants was transferred to a 96-well plate for LC-MS/MS analysis. JV-DE1 is a synthesized new chemical entity (NCE). The absence of the endogenous compound was verified by JeniVision with a battery of pre-clinical GLP and non-GLP studies, including analytical studies in monkey, dog, and rabbit tissues.
The liquid chromatography (LC) system comprised a Waters (Waters Corporation, Milford, CT, USA) Ultra Performance Liquid Chromatography (UPLC) equipped with an ACQUITY UPLC binary solvent manager, an ACQUITY UPLC sample manager, an ACQUTIY UPLC sample organizer, and an ACQUITY UPLC column heater HT. The mass spectrometric (MS) analysis was performed using a Triple Quad 6500+ (Applied Biosystems/MDS Sciex, Concord, ON, Canada) with an ESI ion source. The data acquisition and control system were created using Analyst 1.6.3 and 1.7.1 Software from Applied Biosystems/MDS Sciex. The LC/MS conditions for JV-DE1 are described in Supplementary Table S1a–c.

[7] = target: human IP receptor; set-up: method as in PMID 16331286; details: cited from earlier work
[8] = single eye drop 120 μg/eye OD, 0.5 h
[9] = single eye drop 120 μg/eye OD, 3 h
[10] = single eye drop 120 μg/eye OD, 6 h
[11] = single eye drop 120 μg/eye OD, 24 h

CC/C=C\C/C=C\C/C=C\C/C=C\C/C=C\C/C=C\CCC(=O)O [JV-MD2, cis-4,7,10,13,16,19-docosahexaenoic acid]
laser-induced CNV formation [1]: effectively inhibited laser-induced CNV formation | protective effect on photoreceptors [2]: induced a protective effect | IC50 [3]: 4.6 µM | IC50 [4]: 18 µM | effect on AMD pathologies [5]: alleviated most pathologies

CC(C)Oc1ccc(Cc2ccc(NC3=NCCN3)cc2)cc1 [JV-DE1, 4,5-dihydro-N-[4-[[4-(1-methylethoxy)phenyl]methyl]phenyl]-1H-imadazol-2-amine]
Cmax ([6]; anterior sclera, 120 ug, eye drop 120 µg/eye, read-out: Cmax in anterior sclera): 1790 ng/g | concentration at 0.5 h ([6]; anterior sclera, topical, 120 µg/eye, single eye drop 120 μg/eye OD, 0.5 h, read-out: Drug in OD Tissues, Anterior sclera): 1790 ng/g | concentration at 3 h ([6]; anterior sclera, topical, 120 µg/eye, single eye drop 120 μg/eye OD, 3 h, read-out: Drug in OD Tissues, Anterior sclera): 926 ng/g | concentration at 6 h ([6]; anterior sclera, topical, 120 µg/eye, single eye drop 120 μg/eye OD, 6 h, read-out: Drug in OD Tissues, Anterior sclera): 1480 ng/g | concentration at 24 h ([6]; anterior sclera, topical, 120 µg/eye, single eye drop 120 μg/eye OD, 24 h, read-out: Drug in OD Tissues, Anterior sclera): 93.2 ng/g | Cmax ([6]; bulbar conjunctiva, 120 ug, eye drop 120 µg/eye, read-out: Cmax in bulbar conjunctiva): ~16000 ng/g | Cmax ([6]; ciliary body/iris, 120 ug, eye drop 120 µg/eye, read-out: Cmax in ciliary body/iris): 305 ng/g | concentration at 0.5 h ([6]; ciliary body/iris, topical, 120 µg/eye, single eye drop 120 μg/eye OD, 0.5 h, read-out: Drug in OD Tissues, Ciliary body/iris): 105 ng/g | concentration at 3 h ([6]; ciliary body/iris, topical, 120 µg/eye, single eye drop 120 μg/eye OD, 3 h, read-out: Drug in OD Tissues, Ciliary body/iris): 305 ng/g | concentration at 6 h ([6]; ciliary body/iris, topical, 120 µg/eye, single eye drop 120 μg/eye OD, 6 h, read-out: Drug in OD Tissues, Ciliary body/iris): 231 ng/g | concentration at 24 h ([6]; ciliary body/iris, topical, 120 µg/eye, single eye drop 120 μg/eye OD, 24 h, read-out: Drug in OD Tissues, Ciliary body/iris): 28.9 ng/g | concentration at 0.5 h ([6]; conjunctiva, other: eye drop applied to the eye, single eye drop 120 μg/eye OD, 0.5 h, read-out: Drug in OD Tissues, Conjunctiva): 16500 ng/g | concentration at 3 h ([6]; conjunctiva, other: eye drop applied to the eye, single eye drop 120 μg/eye OD, 3 h, read-out: Drug in OD Tissues, Conjunctiva): 5180 ng/g | concentration at 6 h ([6]; conjunctiva, other: eye drop applied to the eye, single eye drop 120 μg/eye OD, 6 h, read-out: Drug in OD Tissues, Conjunctiva): 566 ng/g | concentration at 24 h ([6]; conjunctiva, other: eye drop applied to the eye, single eye drop 120 μg/eye OD, 24 h, read-out: Drug in OD Tissues, Conjunctiva): 994 ng/g | Cmax ([6]; cornea, 120 ug, eye drop 120 µg/eye, read-out: Cmax in cornea): ~12000 ng/g | concentration at 0.5 h ([6]; cornea, topical, 120 µg/eye, single eye drop 120 μg/eye OD, 0.5 h, read-out: Drug in OD Tissues, Cornea): 12100 ng/g | concentration at 3 h ([6]; cornea, topical, 120 µg/eye, single eye drop 120 μg/eye OD, 3 h, read-out: Drug in OD Tissues, Cornea): 5950 ng/g | concentration at 6 h ([6]; cornea, topical, 120 µg/eye, single eye drop 120 μg/eye OD, 6 h, read-out: Drug in OD Tissues, Cornea): 5130 ng/g | concentration at 24 h ([6]; cornea, topical, 120 µg/eye, single eye drop 120 μg/eye OD, 24 h, read-out: Drug in OD Tissues, Cornea): 542 ng/g | concentration at 0.5 h ([6]; plasma, other: eye drop applied to the eye, single eye drop 120 μg/eye OD, 0.5 h, read-out: Drug in plasma): 1 ng/mL | concentration at 3 h ([6]; plasma, other: eye drop applied to the eye, single eye drop 120 μg/eye OD, 3 h, read-out: Drug in plasma): 0.3 ng/mL | concentration at 6 h ([6]; plasma, other: eye drop applied to the eye, single eye drop 120 μg/eye OD, 6 h, read-out: Drug in plasma): 0.1 ng/mL | Cmax ([6]; posterior sclera, 120 ug, eye drop 120 µg/eye, read-out: Cmax in posterior sclera): 240 ng/g | concentration at 0.5 h ([6]; posterior sclera, topical, 120 µg/eye, single eye drop 120 μg/eye OD, 0.5 h, read-out: Drug in OD Tissues, Posterior sclera): 209 ng/g | concentration at 3 h ([6]; posterior sclera, topical, 120 µg/eye, single eye drop 120 μg/eye OD, 3 h, read-out: Drug in OD Tissues, Posterior sclera): 240 ng/g | concentration at 6 h ([6]; posterior sclera, topical, 120 µg/eye, single eye drop 120 μg/eye OD, 6 h, read-out: Drug in OD Tissues, Posterior sclera): 151 ng/g | concentration at 24 h ([6]; posterior sclera, topical, 120 µg/eye, single eye drop 120 μg/eye OD, 24 h, read-out: Drug in OD Tissues, Posterior sclera): 64.5 ng/g | Cmax ([6]; retina, 120 µg per eye, eye drop administration, read-out: retinal Cmax): 297 nM | Cmax ([6]; retina, 120 ug, eye drop 120 µg/eye, read-out: Cmax in retina): 92 ng/g | concentration at 0.5 h ([6]; retina, topical, 120 µg/eye, single eye drop 120 μg/eye OD, 0.5 h, read-out: Drug in OD Tissues, Retina): 92 ng/g | concentration at 3 h ([6]; retina, topical, 120 µg/eye, single eye drop 120 μg/eye OD, 3 h, read-out: Drug in OD Tissues, Retina): 49.1 ng/g | concentration at 6 h ([6]; retina, topical, 120 µg/eye, single eye drop 120 μg/eye OD, 6 h, read-out: Drug in OD Tissues, Retina): 58.9 ng/g | concentration at 24 h ([6]; retina, topical, 120 µg/eye, single eye drop 120 μg/eye OD, 24 h, read-out: Drug in OD Tissues, Retina): 6.8 ng/g | Cmax ([6]; vitreous humor, 120 ug, eye drop 120 µg/eye, read-out: Cmax in vitreous humor): 2.6 ng/mL | concentration at 0.5 h ([6]; vitreous humor, topical, 120 µg/eye, single eye drop 120 μg/eye OD, 0.5 h, read-out: Drug in vitreous humor): 2.6 ng/mL | concentration at 3 h ([6]; vitreous humor, topical, 120 µg/eye, single eye drop 120 μg/eye OD, 3 h, read-out: Drug in vitreous humor): 1.7 ng/mL | concentration at 6 h ([6]; vitreous humor, topical, 120 µg/eye, single eye drop 120 μg/eye OD, 6 h, read-out: Drug in vitreous humor): 1.2 ng/mL | concentration at 24 h ([6]; vitreous humor, topical, 120 µg/eye, single eye drop 120 μg/eye OD, 24 h, read-out: Drug in vitreous humor): 0.4 ng/mL | maximum ocular delivery efficiency (% administered dose), anterior sclera ([6]; eye drop 120 µg/eye): 0.2982% | maximum ocular delivery efficiency (% administered dose), ciliary body/iris ([6]; eye drop 120 µg/eye): 0.0174% | maximum ocular delivery efficiency (% administered dose), conjunctiva ([6]; eye drop 120 µg/eye): 1.3929% | maximum ocular delivery efficiency (% administered dose), cornea ([6]; eye drop 120 µg/eye): 0.8622% | maximum ocular delivery efficiency (% administered dose), retina ([6]; eye drop 120 µg/eye): 0.0047% | maximum ocular delivery efficiency (% administered dose), vitreous humor ([6]; eye drop 120 µg/eye): 0.0023% | drug concentration in the plasma ([6]; eye drop 120 µg/eye, throughout 0.5, 3 and 6 h post-dose): no more than 0.001 µg/mL | % Administered Dose, Anterior sclera [6, 8]: 0.2982% | % Administered Dose, Ciliary body/iris [6, 8]: 0.0084% | % Administered Dose, Conjunctiva [6, 8]: 1.3929% | % Administered Dose, Cornea [6, 8]: 0.8622% | % Administered Dose, Posterior sclera [6, 8]: 0.0153% | % Administered Dose, Retina [6, 8]: 0.0047% | % Administered Dose, Vitreous humor [6, 8]: 0.0023% | % Administered Dose, Anterior sclera [6, 9]: 0.1068% | % Administered Dose, Ciliary body/iris [6, 9]: 0.0174% | % Administered Dose, Conjunctiva [6, 9]: 0.4477% | % Administered Dose, Cornea [6, 9]: 0.4239% | % Administered Dose, Posterior sclera [6, 9]: 0.0323% | % Administered Dose, Retina [6, 9]: 0.0036% | % Administered Dose, Vitreous humor [6, 9]: 0.0012% | % Administered Dose, Anterior sclera [6, 10]: 0.2139% | % Administered Dose, Ciliary body/iris [6, 10]: 0.0137% | % Administered Dose, Conjunctiva [6, 10]: 0.1288% | % Administered Dose, Cornea [6, 10]: 0.3709% | % Administered Dose, Posterior sclera [6, 10]: 0.0197% | % Administered Dose, Retina [6, 10]: 0.0037% | % Administered Dose, Vitreous humor [6, 10]: 0.0007% | % Administered Dose, Anterior sclera [6, 11]: 0.0127% | % Administered Dose, Ciliary body/iris [6, 11]: 0.0021% | % Administered Dose, Conjunctiva [6, 11]: 0.1467% | % Administered Dose, Cornea [6, 11]: 0.0254% | % Administered Dose, Posterior sclera [6, 11]: 0.0088% | % Administered Dose, Retina [6, 11]: 0.0004% | % Administered Dose, Vitreous humor [6, 11]: 0.0004% | Drug in plasma ([6]; single eye drop 120 μg/eye OD, 24 h, LLOQ 0.0001 µg/mL): BLQ | Ki [7]: 0.0005 µM | pKi [7]: 9.3
